Measured values as given in patent publication US20100004248A1, “Use of a Nitric Oxide Synthase Modulator for the Treatment of Cardiac Indications” (priority 2005, published 2010).

Legend:
[1] = system: intact heart, beta-adrenergic stimulation by ISO; assay: Contractility response of intact heart to isoproterenol (ISO); assay type: in vivo, mouse
Source text: Regulation of acute beta-adrenergic stress by PDE5a inhibition (resulting in a rise in cGMP and activation of protein kinase G) requires the activity of nitric oxide synthase (NOS). […] This can be offset by chronic distal activation of the NO target protein soluble guanylate cyclase 9sGC). At the left are bars depicting the contractility response of an intact heart to ISO before and after co-administration of SIL. The ISO response is normally blunted by nearly 80%. The middle bars show data from mice with NOS inhibited by L-NAME (1 mg/L in drinking water). […] However, if one continues to treat hearts with the soluble guanylate cyclase activator (BAY 41-8543) for a week-all the while continuing NOS inhibition with L-NAME, the ability of SIL to suppress adrenergic stimulation is restored.

[2] = system: C57/BL6 WT mice subjected to TAC pressure overload; assay: Body weight and heart weight in mice subjected to transverse aortic constriction (TAC); assay type: in vivo, mouse; details: TAC 3 weeks, oral co-treatment 1 mg/g food, mean ± sem
Source text: Male NOS3 null mice (NOS3^−/−) and C57/BL6 WT controls (8-11 weeks, Jackson Labs, Bar Harbor, Me., USA) were used. Pressure overload was produced by transverse aorta constriction (TAC). Briefly, The aortic arch was isolated by entering the extrapleural space between the second and third rib, and afterwards the transverse aorta was isolated between the right and left carotid arteries. A 7-0 prolene suture ligature was tied around the transverse aorta against a 27-gauge needle to produce a 65-70% constriction after the removal of the needle. After closing the chest, animals were extubated, and a subcutaneous injection of morphine sulphate 0.2 mg, was administered before they returned to their cages. Animal's ventilatory and circulatory status was checked every 30 minutes during the first 2 hours. Sham-operated mice underwent the same operation except for aortic constriction. […] Animals were randomized to receive placebo or BH4 (120 mg/kg/d) for the next 5 weeks. At the end of the study, i.e. at 9 weeks, animal were sacrificed to receive tissue or underwent in vivo PV-loop analysis. […] Control mice were subject to sham operations, and animals were studied 3-9 weeks following surgery. […]

[3] = system: C57/BL6 WT mice subjected to TAC pressure overload; assay: Transthoracic echocardiography in conscious TAC mice; assay type: in vivo, mouse
Source text: (§1) Male NOS3 null mice (NOS3^−/−) and C57/BL6 WT controls (8-11 weeks, Jackson Labs, Bar Harbor, Me., USA) were used. Pressure overload was produced by transverse aorta constriction (TAC). Briefly, The aortic arch was isolated by entering the extrapleural space between the second and third rib, and afterwards the transverse aorta was isolated between the right and left carotid arteries. A 7-0 prolene suture ligature was tied around the transverse aorta against a 27-gauge needle to produce a 65-70% constriction after the removal of the needle. After closing the chest, animals were extubated, and a subcutaneous injection of morphine sulphate 0.2 mg, was administered before they returned to their cages. Animal's ventilatory and circulatory status was checked every 30 minutes during the first 2 hours. Sham-operated mice underwent the same operation except for aortic constriction. […] Animals were randomized to receive placebo or BH4 (120 mg/kg/d) for the next 5 weeks. At the end of the study, i.e. at 9 weeks, animal were sacrificed to receive tissue or underwent in vivo PV-loop analysis. […] Control mice were subject to sham operations, and animals were studied 3-9 weeks following surgery. An additional group of wild-type animals were subjected to TAC for 3 weeks while co-treated with oral tetrahydrobiopterin (BH4) (Sigma-Aldrich) (1 mg/g food) mixed in their rodent chow, providing 5 mg/day based on 4-6 g daily diet^8.
(§2) Two different BH4 treatment protocols are used. For experiments related to FIGS. 1-7, where prevention of cardiac indications is described BH4 is provided orally as a treatment starting 2 days after TAC surgery (once mice are again eating oral diet). For those figures related to treatment of established cardiac indications, FIGS. 8-23, BH4 is provided orally but this is delayed for 4 weeks to establish substantial cardiac hypertrophy, remodeling, and NOS-uncoupling. Then the treatment is provided for the remaining 5 week period.
For folate studies, C57/BL6 WT were treated with folate (10 mg/kg/day) or with placebo for a 9 week period during which time the hearts were exposed to TAC.
In vivo cardiac morphology was assessed by transthoracic echocardiography (Acuson Sequoia C256, 13 MHz transducer, Siemens) in conscious mice. M-mode left ventricular (LV) end-systolic and end-diastolic dimensions were averaged from 3-5 beats. Left ventricular ejection fraction (LVEF) and percent fractional shortening (% FS) were calculated as: LVEF=[(LVEDD)^3-(LVESD)^3]/(LVEDD)^3×100; % FS=(LVEDD−LVESD)/LVEDD×100. Wall thickness of lateral freewall and intraventricular septum were averaged. Studies and analysis were performed blinded to heart condition.

[4] = system: C57/BL6 WT mice subjected to TAC pressure overload; assay: In vivo hemodynamics, PV loop analysis, in TAC mice; set-up: species or system mouse; details: TAC 3 weeks, oral co-treatment 1 mg/g food, mean ± sem
Source text: as §1, §2
In vivo left ventricular (LV) function was assessed by pressure-volume catheter^12,13. Mice were anesthetized with 1-2% isoflurane, urethane ([…], i.p.), etomidate (5-10 mg/kg, i.p.), and morphine (1-2 mg/kg, i.p.), underwent tracheostomy, and were ventilated with 6-7 μL/g tidal volume and 130 breaths/min. Volume expansion (12.5% human albumin, 50-100 μL over 5 min) was provided through a 30 G cannula via the right external jugular vein. The left ventricular apex was exposed through an incision between the 7-8th rib, and a catheter, specifically a 1.4 Fr PV catheter (SPR 839, Millar Instruments, Inc.), was advanced through the apex to lie along the longitudinal axis. Absolute volume was calibrated, and pressure-volume data was measured at steady state and during transient reduction of venous return as reported^13

NOS = biological target: T1, NOS (Mus musculus, UniProt P70313); assay: Luminol chemiluminescence of heart tissue extracts with or without co-incubation with L-NAME (NOS-derived O2−); assay type: biochemical; details: 1 mM co-incubation
T1 construct: from tissue; host or cells: mouse left ventricular tissue homogenate
T1 sequence (P70313 2-1202): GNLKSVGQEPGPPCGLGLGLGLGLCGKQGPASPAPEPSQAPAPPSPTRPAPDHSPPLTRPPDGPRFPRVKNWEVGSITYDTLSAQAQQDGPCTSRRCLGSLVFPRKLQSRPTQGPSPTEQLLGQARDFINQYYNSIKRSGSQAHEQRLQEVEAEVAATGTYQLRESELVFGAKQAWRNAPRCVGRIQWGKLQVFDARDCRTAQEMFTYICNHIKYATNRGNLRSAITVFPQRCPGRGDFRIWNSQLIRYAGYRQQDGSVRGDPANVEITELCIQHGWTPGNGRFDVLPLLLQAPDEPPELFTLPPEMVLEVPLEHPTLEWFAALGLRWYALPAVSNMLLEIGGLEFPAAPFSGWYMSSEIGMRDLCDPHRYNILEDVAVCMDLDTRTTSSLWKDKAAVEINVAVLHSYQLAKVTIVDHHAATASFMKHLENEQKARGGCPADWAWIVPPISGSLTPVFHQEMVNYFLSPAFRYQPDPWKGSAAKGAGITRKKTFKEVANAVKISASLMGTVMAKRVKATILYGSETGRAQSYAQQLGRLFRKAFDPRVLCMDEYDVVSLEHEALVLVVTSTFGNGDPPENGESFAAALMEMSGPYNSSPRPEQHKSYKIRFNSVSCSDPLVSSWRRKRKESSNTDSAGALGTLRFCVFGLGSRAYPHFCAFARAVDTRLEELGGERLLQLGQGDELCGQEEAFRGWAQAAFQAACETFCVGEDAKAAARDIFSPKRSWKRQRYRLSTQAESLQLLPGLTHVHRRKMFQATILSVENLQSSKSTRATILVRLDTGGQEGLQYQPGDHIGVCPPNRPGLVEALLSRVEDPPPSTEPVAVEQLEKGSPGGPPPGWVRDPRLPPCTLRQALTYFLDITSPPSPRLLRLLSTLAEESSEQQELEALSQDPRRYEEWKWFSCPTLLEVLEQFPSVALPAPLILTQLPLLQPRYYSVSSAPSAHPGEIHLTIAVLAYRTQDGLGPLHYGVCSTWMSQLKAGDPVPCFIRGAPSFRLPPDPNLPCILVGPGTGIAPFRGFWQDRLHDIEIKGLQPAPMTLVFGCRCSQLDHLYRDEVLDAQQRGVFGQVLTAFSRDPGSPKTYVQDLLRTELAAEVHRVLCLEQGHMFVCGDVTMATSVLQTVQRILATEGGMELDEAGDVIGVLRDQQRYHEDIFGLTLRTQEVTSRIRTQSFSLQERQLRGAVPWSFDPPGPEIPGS
Method: Given the decline in NO-synthetic activity, it was next tested whether NOS-derived O2^− increased with TAC. Tissue extracts were subjected to luminol chemiluminescence assay with or without co-incubation with the NOS inhibitor L-NAME (1 mM). The relative contribution of NOS was minimal under basal conditions, but rose markedly (˜50%) after 3- and 9-weeks TAC (FIG. 6D). Control data in NOS3^−/− hearts confirmed this to be from NOS3 and not the other NOS isoforms.
Reactive oxygen species generation was examined by several independent methods. Superoxide production in left ventricular tissue homogenates was determined by luminol-enhanced chemiluminescence (EMD Biosciences). Flash frozen myocardium was homogenized in iced PBS buffer, centrifuged, and the precipitate re-suspended in assay buffer to a final concentration of 100 μM luminol following manufacturer's instructions. Phorbol-12-myristate-13-acetate or other oxidase stimulators were not used in the assay. Data were normalized by sample weight. […] Nitrotyrosine was also quantitatively assessed by ELISA assay (Oxis International).

[5] = healthy subjects, cited from earlier work
[6] = system: Adult myocytes isolated from wild-type C57/B16 mouse hearts; assay: Sarcomere shortening of isolated adult myocytes exposed to isoproterenol; assay type: cell-based; details: myocytes from 3-4 weeks TAC hearts first treated with the anti-oxidant
[7] = WT mice, TAC 3 weeks, oral co-treatment 1 mg/g food, mean ± sem
[8] = TAC up to 9 weeks, folate 10 mg/kg/day vs placebo, p<0.05

Nc1nc(-c2nn(Cc3ccccc3F)c3ncccc23)nc(N)c1N1CCOCC1 [BAY 41-8543]
restoration of the ability of SIL to suppress ISO stimulated contractility ([1]; acute administration of sGC activator, L-NAME for 1 week): does not reverse this | restoration of the ability of SIL to suppress adrenergic stimulation ([1]; sGC activator for a week while continuing L-NAME): restored

C[C@H](O)[C@H](O)[C@H]1CNc2nc(N)[nH]c(=O)c2N1 [BH4, (6R)-5,6,7,8-tetrahydrobiopterin]
Heart Weight (HW) [2]: 170.3 ± 3.9 mg | Fractional Shortening [3, 7]: 61.7 ± 1.7 % | LV diameter Diastole [3, 7]: 2.87 ± 0.06 mm | LV diameter Systole [3, 7]: 1.12 ± 0.06 mm | Wall thickness [3, 7]: 1.09 ± 0.03 mm | Arterial Elastance [4]: 10.6 ± 0.7 mmHg/μL | Ejection Fraction [4]: 78.4 ± 5.8 % | End-diastolic Volume [4]: 20.5 ± 1.9 µL | End-systolic Elastance [4]: 115.1 ± 9.6 mmHg/μL · g | End-systolic Volume [4]: 4.8 ± 1.7 µL | Heart RateR [4]: 603.3 ± 22.9 min⁻¹ | LV Systolic Pressure [4]: 193.0 ± 1.7 mmHg | Peak Power Index [4]: 75.5 ± 10.5 mmHg/s | Tau [4]: 3.5 ± 0.2 ms | dPdtmn [4]: −15743 ± 1325 mmHg/s | dPdtmx [4]: 17003 ± 1125 mmHg/s

COC(=O)[C@@H](N)CCCNC(=N)N[N+](=O)[O-] [L-NAME]
inhibition of luminol chemiluminescence (NOS; 3 weeks and 9 weeks WT-TAC heart lysates): ~50% | inhibition of luminol chemiluminescence (NOS; baseline (sham) heart lysates): < 15%

CN1CC(=O)N2[C@H](c3ccc4c(c3)OCO4)c3[nH]c4ccccc4c3C[C@@H]2C1=O [Tadalafil, tadalafil]
time of peak plasma concentration post-dose ([5]; oral 20 mg dose): two | apparent oral clearance (CL/F) ([5]; oral): 2.48 L/h | mean elimination half-life ([5]; oral): about 17.5 h

Nc1nc2ncc(CNc3ccc(C(=O)N[C@@H](CCC(=O)O)C(=O)O)cc3)nc2c(=O)[nH]1 [folate, folic acid]
LV mass [3, 8]: reduced | cardiac dilation [3, 8]: diminished | Ejection Fraction ([3]; TAC up to 9 weeks, folate 10 mg/kg/day vs placebo, p=0.05): significantly improved

N[C@@H](CCC(=O)N[C@@H](CS)C(=O)NCC(=O)O)C(=O)O [reduced glutathione]
capacity of PDE5a inhibition to blunt the beta-adrenergic response after anti-oxidant pre-treatment [6]: recovered
